Measured values reported in ChEMBL document CHEMBL6153174, “Design and Synthesis of Novel Deazapurine DNMT 1 Inhibitors with In Vivo Efficacy in DLBCL” (J Med Chem, 2025).

How the values were obtained:
[1] = molecular target: DNA (cytosine-5)-methyltransferase 1 (Homo sapiens, UniProt P26358); assay: Inhibition of DNMT1 (unknown origin) at 5 uM preincubated for 15 mins followed by substrate and [3H-SAM] addition and measured after 60 mins by microbeta analysis relative to control; details: time 75.0 min
[2] = Cmax in Sprague-Dawley rat at 10 mg/kg, po measured upto 24 hrs by LC/MS/MS analysis; type: ADME, organism-based; details: in vivo
[3] = Terminal elimination half life in Sprague-Dawley rat at 10 mg/kg, po measured upto 24 hrs by LC/MS/MS analysis; type: ADME, organism-based; details: in vivo, read-out: beta t1/2 (converted)
[4] = Apparent clearance during terminal phase in Sprague-Dawley rat at 10 mg/kg, po measured upto 24 hrs by LC/MS/MS analysis; type: ADME, organism-based; details: in vivo, read-out: CLz/F (converted)
RPMI-8226 = assay: Antiproliferative activity against human RPMI-8226 cells assessed as inhibition of cell viability measured after 72 hrs by MTT assay; type: functional, cell-based; details: RPMI-8226, 72 h
NCI-H1299 = assay: Antiproliferative activity against human NCI-H1299 cells assessed as inhibition of cell viability measured after 72 hrs by MTT assay; type: functional, cell-based; details: NCI-H1299, 72 h
DOHH-2 [5] = assay: Antiproliferative activity against human DOHH-2 cells assessed as inhibition of cell viability measured after 72 hrs by MTT assay; type: functional, cell-based; details: DOHH-2, 72 h
Jurkat = assay: Antiproliferative activity against human Jurkat cells assessed as inhibition of cell viability measured after 72 hrs by MTT assay; type: functional, cell-based
DOHH-2 [6] = assay: Induction of cell cycle arrest in human DOHH-2 cells assessed as accumulation of cells at G2-M phase at 0.25 uM incubated for 24 hrs by PI staining based flow cytometry analysis (reference value: 27.8%); type: functional
TMD8 [7] = assay: Induction of apoptosis in human TMD8 cells assessed as late apoptotic cells measured after 48 hrs by annexin-V/FITC and PI staining based flow cytometry analysis; type: functional, cell-based; details: dose 1-10 µM
TMD8 [8] = assay: Induction of apoptosis in human TMD8 cells assessed as early apoptotic cells at 2.5 uM measured after 48 hrs by annexin-V/FITC and PI staining based flow cytometry analysis (reference value: 9.15%); type: functional
TMD8 [9] = assay: Induction of apoptosis in human TMD8 cells assessed as early apoptotic cells at 5 uM measured after 48 hrs by annexin-V/FITC and PI staining based flow cytometry analysis (reference value: 9.15%); type: functional
TMD8 [10] = assay: Induction of apoptosis in human TMD8 cells assessed as late apoptotic cells at 5 uM measured after 48 hrs by annexin-V/FITC and PI staining based flow cytometry analysis (reference value: 5.13%); type: functional
DOHH-2 [11] = assay: Induction of apoptosis in human DOHH-2 cells assessed as early apoptotic cells at 0.25 uM measured after 48 hrs by annexin-V/FITC and PI staining based flow cytometry analysis (reference value: 5.69%); type: functional
DOHH-2 [12] = assay: Induction of apoptosis in human DOHH-2 cells assessed as late apoptotic cells at 1 uM measured after 48 hrs by annexin-V/FITC and PI staining based flow cytometry analysis (reference value: 3.66%); type: functional
DOHH-2 [13] = assay: Induction of apoptosis in human DOHH-2 cells assessed as late apoptotic cells at 2.5 uM measured after 48 hrs by annexin-V/FITC and PI staining based flow cytometry analysis (reference value: 3.66%); type: functional
[14] = Downregulation of BAX methylation level in human DOHH-2 cells at 100 nM measured after 6 days by PCR analysis relative to control; type: functional; details: time 6 day
[15] = Upregulation of FAS mRNA level in human DOHH-2 cells assessed as fold change at 300 nM measured after 6 days by PCR analysis; type: functional; details: time 6 day
[16] = Subacute toxicity in Balb/C mouse assessed as effect on hemoglobin at 30 mg/kg, iv administered three times in a week for 2 weeks; type: organism-based; details: in vivo, 336 h
[17] = Subacute toxicity in Balb/C mouse assessed as effect on hematocrit at 30 mg/kg, iv administered three times in a week for 2 weeks; type: organism-based; details: in vivo, 336 h
[18] = Antitumor activity against human TMD8 cells harbouring […] xenografted in mouse model assessed as tumor inhibition rate at 10 mg/kg, iv administered three times a week in presence of chidamide relative to control; type: functional; set-up: scale not given: the % may be the effect or the level left
[19] = Antitumor activity against human TMD8 cells harbouring […] xenografted in mouse model assessed as body weight change at 10 mg/kg, iv administered three times a week relative to control; type: functional
[20] = Antitumor activity against human TMD8 cells harbouring TP53 mutant xenografted in mouse model assessed as body weight change at 10 mg/kg, iv administered three times a week in presence of chidamide relative to control; type: functional

Sequence of DNA (cytosine-5)-methyltransferase 1 (P26358 whole entry): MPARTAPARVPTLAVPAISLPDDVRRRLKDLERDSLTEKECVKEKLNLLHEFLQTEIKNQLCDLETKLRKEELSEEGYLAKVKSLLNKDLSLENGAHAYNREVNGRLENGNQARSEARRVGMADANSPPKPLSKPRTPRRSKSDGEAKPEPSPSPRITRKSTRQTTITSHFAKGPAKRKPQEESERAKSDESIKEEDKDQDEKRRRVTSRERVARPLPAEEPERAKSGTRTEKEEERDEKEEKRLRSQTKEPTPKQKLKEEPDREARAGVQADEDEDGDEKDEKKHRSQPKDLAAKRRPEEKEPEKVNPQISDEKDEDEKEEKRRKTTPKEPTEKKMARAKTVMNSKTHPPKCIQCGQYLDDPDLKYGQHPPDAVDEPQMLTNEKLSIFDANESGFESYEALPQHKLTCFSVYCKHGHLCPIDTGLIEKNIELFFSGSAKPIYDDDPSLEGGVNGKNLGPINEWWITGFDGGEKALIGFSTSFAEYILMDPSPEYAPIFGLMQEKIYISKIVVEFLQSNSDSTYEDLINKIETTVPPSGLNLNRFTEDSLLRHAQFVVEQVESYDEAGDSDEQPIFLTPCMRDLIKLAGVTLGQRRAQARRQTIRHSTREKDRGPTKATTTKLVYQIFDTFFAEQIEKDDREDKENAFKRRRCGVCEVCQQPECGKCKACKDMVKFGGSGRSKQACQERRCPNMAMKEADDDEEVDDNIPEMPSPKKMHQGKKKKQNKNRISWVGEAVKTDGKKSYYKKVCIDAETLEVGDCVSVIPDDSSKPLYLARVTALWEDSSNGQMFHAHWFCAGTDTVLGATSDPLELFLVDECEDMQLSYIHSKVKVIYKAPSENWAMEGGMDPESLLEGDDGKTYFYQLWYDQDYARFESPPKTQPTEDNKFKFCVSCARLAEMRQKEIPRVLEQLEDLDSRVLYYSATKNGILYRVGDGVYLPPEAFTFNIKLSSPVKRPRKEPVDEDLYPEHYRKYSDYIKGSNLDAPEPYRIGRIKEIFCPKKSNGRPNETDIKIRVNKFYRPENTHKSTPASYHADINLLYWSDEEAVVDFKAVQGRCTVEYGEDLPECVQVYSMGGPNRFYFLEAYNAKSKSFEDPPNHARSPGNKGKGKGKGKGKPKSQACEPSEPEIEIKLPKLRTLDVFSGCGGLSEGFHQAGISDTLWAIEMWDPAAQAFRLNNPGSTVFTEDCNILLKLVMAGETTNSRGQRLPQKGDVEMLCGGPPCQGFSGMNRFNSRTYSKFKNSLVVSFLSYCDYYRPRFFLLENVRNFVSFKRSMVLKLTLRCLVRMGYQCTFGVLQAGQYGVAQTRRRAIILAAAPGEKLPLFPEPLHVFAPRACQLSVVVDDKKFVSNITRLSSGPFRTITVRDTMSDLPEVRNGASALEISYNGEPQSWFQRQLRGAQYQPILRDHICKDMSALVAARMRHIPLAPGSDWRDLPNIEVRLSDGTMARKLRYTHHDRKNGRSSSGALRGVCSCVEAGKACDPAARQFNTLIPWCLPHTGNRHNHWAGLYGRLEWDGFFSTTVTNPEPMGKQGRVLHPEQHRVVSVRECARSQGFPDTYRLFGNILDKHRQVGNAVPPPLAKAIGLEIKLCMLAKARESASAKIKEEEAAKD

CN1CCC(Nc2nc(-c3ccnc(F)c3)nc3c2ccn3CCCN2CCCC2)CC1
inhibition [1]: 75%
Cmax [2]: 16.7 ng/mL
half-life [3]: 21.9 h
CL/F [4]: 322 mL/min/kg
IC50 (RPMI-8226): 0.78 µM
IC50 (NCI-H1299): 2.38 µM
IC50 (DOHH-2 [5]): 0.19 µM
IC50 (Jurkat): 0.57 µM
Activity (DOHH-2 [6]): 29.9%
Activity (TMD8 [7]): Dose-dependent-effect
Activity (TMD8 [8]): 23%
Activity (TMD8 [9]): 41.3%
Activity (TMD8 [10]): 17%
Activity (DOHH-2 [11]): 10.5%
Activity (DOHH-2 [12]): 13.6%
Activity (DOHH-2 [13]): 23.5%
Activity [14]: 55.2%
fold change (FC) [15]: 3.05
Activity [16]: Non-toxic
Activity [17]: Non-toxic
Activity [18]: 78.1%
Activity [19]: 6.8%
Activity [20]: -1.5%
